Values joined by “and” are separate entries in the source; they are usually repeats but may differ in a detail not shown here. Equal values may be shown once. “Also recorded” adds a separate entry of the source. Read-outs that look alike come from different tables or passages of the source. Each block holds one compound with its values, some of them ahead of it.
What was measured:
Format in all cases: cell-based, Staphylococcus aureus
[1] = test system: MRSA (normal MRSA strain, not USA300); assay: MRSA growth (optical density) with bacitracin and phenolic antioxidants; details: for growth of MRSA with bacitracin plus antioxidant: bacitracin 0.002 μg/mL, antioxidant 0.5 μg/mL, FIG. 6; for optical density of MRSA after 18 h culture: inhibition of growth in combination with bacitracin: bacitracin 0.002 μg/ml (ca. 0.0002 U), antioxidant 0.5 μg/ml, FIG. 8
From the text: (§1) MRSA (ATCC 33593), MSSA (ATCC 29213), and MRSA USA300 (BAA-1680) strains were purchased from the American Type Culture Collection (ATCC; Manassas, Va.). Eight clinical isolates of MRSA were obtained from the Culture Collection of Antimicrobial Resistant Microbes, Korea National Research Resource Center (KNRRC). Salmonella enterica Typhimurium LT2 was purchased from ATCC, and Escherichia coli O157:H7 is a kind gift from Dr. Sangryeol Ryu (Seoul National University, South Korea). All S. aureus strains were maintained in Trypticase Soy (TS) medium, and E. coli O157:H7 and Salmonella were routinely grown aerobically on Luria-Bertani (LB) media at 37° C. For measuring growth kinetics, an overnight culture of MRSA in Mueller-Hinton (MH) broth was diluted 100-fold in fresh MH broth and cultured until early exponential phase. The culture (200 μl) was transferred to each well of a sterile 96-well plate and incubated at 37° C. with bacitracin alone, alkyl gallate alone, and combination of bacitracin/alkyl gallates at various concentrations. The optical density at 600 nm (OD600) was measured every hour with FLUOstar® Omega (BMG Labtech, Germany).
MRSA were grown with bacitracin (0.002 μg/mL) with antioxidant (as shown) at 0.5 μg/mL.
FIG. 7A is growth with no added bacitracin or lauryl gallate.
The optical density of MRSA was measured after 18 h culture with bacitracin (0.002 μg/ml) and antioxidants (as indicated at 0.5 μg/ml). Also measured were controls with no additions, with bacitracin alone and with antioxidant alone. FIGS. 8A, 8B, 8C and 8D are graphs illustrating the results.

MSSA (ATCC 29213) = assay: MIC (broth dilution) and MBC (spotting) of phenolic antioxidants and bacitracin; details: for MIC: antioxidant alone
From the text: as §1
(§2) Broth micro dilution assays were performed to determine the minimum inhibitory concentrations (MIC) accordance to the M7-A7 protocol of the Clinical and Laboratory Standards Institute (CLSI) guidelines^28. The susceptibility test was carried out with an initial bacterial inoculum of 1.5×10^5 CFU ml^−1. Alkyl gallates and bacitracin were serially diluted in a polystyrene 96 well plate and the plate was incubated at 37° C. for 24 h. Minimum bactericidal concentration (MBC) was determined by spotting 10 μl of cultures from MIC tests onto MH agar and incubated aerobically at 37° C.
(§3) MICs were determined with MRSA and methicillin-sensitive S. aureus (MSSA) using a broth dilution method as described above.
(§4) MRSA and MSSA were cultured overnight with antioxidants (0.5 μg/ml) and bacitracin at various concentrations and 10 μL of the culture was spotted on MH agar plates and incubated aerobically at 37° C. to observe the bacterial viability. The results in FIGS. 9A, 9B, 9C and 9D (photographs of plates) show the Minimal Bactericidal Concentrations (MBCs) for indicated antioxidants. Bacitracin killed MRSA and MSSA at concentrations greater than or equal to 2 μg/mi.

MRSA (ATCC 33593) = assay: microbe, parasite or virus in culture
From the text: as §1, §2, §3, §4

MRSA 3823 = assay: microbe, parasite or virus in culture; details: Staphylococcus aureus
From the text: as §1, §2

MRSA 3865 = assay: microbe, parasite or virus in culture; details: Staphylococcus aureus
From the text: as §1, §2

MRSA 3876 = assay: microbe, parasite or virus in culture; details: Staphylococcus aureus
From the text: as §1, §2

MRSA 3799 = assay: microbe, parasite or virus in culture; details: Staphylococcus aureus
From the text: as §1, §2

MRSA 3795 = assay: microbe, parasite or virus in culture; details: Staphylococcus aureus
From the text: as §1, §2

MRSA 3903 = assay: microbe, parasite or virus in culture; details: Staphylococcus aureus
From the text: as §1, §2

MRSA 3A585 = assay: microbe, parasite or virus in culture; details: Staphylococcus aureus
From the text: as §1, §2

MRSA 3095 = assay: microbe, parasite or virus in culture; details: Staphylococcus aureus
From the text: as §1, §2

MRSA USA300 (BAA-1680) = assay: microbe, parasite or virus in culture; details: agent alone
From the text: as §1, §2

[2] = Staphylococcus aureus, read-out: MIC
[3] = Staphylococcus aureus, MRSA, antioxidant alone, read-out: MIC
[4] = MRSA 3823 (human/nose), read-out: MIC
[5] = MRSA 3865 (human/skin), read-out: MIC
[6] = MRSA 3876 (human/skin), read-out: MIC
[7] = MRSA 3799 (human/nose), read-out: MIC
[8] = MRSA 3795 (human/nose), read-out: MIC
[9] = MRSA 3903 (human/skin), read-out: MIC
[10] = MRSA 3A585 (human/blood), read-out: MIC

- MIC (MSSA (ATCC 29213); [2]): 1020 µg/mL
- MIC (MSSA (ATCC 29213)): >1024 µg/mL
- MIC (MRSA (ATCC 33593); [3]): > 1020 µg/mL
SMILES: Cc1cc(C(C)(C)C)c(O)c(C(C)(C)C)c1 [Butylated hydroxytoluene, butylated hydroxytoluene]
- growth of MRSA with bacitracin plus antioxidant [1]: did not show any synergistic effects with bacitracin
- optical density of MRSA after 18 h culture: inhibition of growth in combination with bacitracin ([1]; listed as BHT): no synergistic inhibition of growth; also recorded: did not show any synergistic antimicrobial effects
- synergistic killing with bacitracin (MSSA (ATCC 29213); antioxidant 0.5 μg/ml): did not generate any synergistic killing
- synergistic killing with bacitracin (MRSA (ATCC 33593); MRSA, antioxidant 0.5 μg/ml): did not generate any synergistic killing

- MIC (MRSA 3823; [4]): ≥ 128 µg/mL
- MIC (MRSA 3865; [5]): ≥ 128 µg/mL
- MIC (MRSA 3876; [6]): < 0.12 µg/mL
- MIC (MRSA 3799; [7]): ≥ 128 µg/mL
- MIC (MRSA 3795; [8]): ≥ 128 µg/mL
- MIC (MRSA 3903; [9]): ≥ 128 µg/mL
- MIC (MRSA 3A585; [10]): ≤ 0.25 µg/mL
SMILES: O=C(N[C@H](CO)[C@H](O)c1ccc([N+](=O)[O-])cc1)C(Cl)Cl [CL, chloramphenicol]

- MIC (MSSA (ATCC 29213); [2]): > 1020 µg/mL
- MIC (MRSA (ATCC 33593); [3]): > 1020 µg/mL
SMILES: O=C(O)C=Cc1ccccc1 [Cinnamic acid, cinnamic acid]

- MIC (MRSA 3823; [4]): ≥ 128 µg/mL
- MIC (MRSA 3865; [5]): ≥ 128 µg/mL
- MIC (MRSA 3876; [6]): ≥ 128 µg/mL
- MIC (MRSA 3799; [7]): ≥ 128 µg/mL
- MIC (MRSA 3095; MRSA 3095 (human/skin), read-out: MIC): ≥ 128 µg/mL
- MIC (MRSA 3795; [8]): ≥ 128 µg/mL
- MIC (MRSA 3903; [9]): ≥ 128 µg/mL
- MIC (MRSA 3A585; [10]): ≥ 4 µg/mL
SMILES: CC[C@H]1OC(=O)[C@H](C)[C@@H](O[C@H]2C[C@@](C)(OC)[C@@H](O)[C@H](C)O2)[C@H](C)[C@@H](O[C@@H]2O[C@H](C)C[C@H](N(C)C)[C@H]2O)[C@](C)(O)C[C@@H](C)C(=O)[C@H](C)[C@@H](O)[C@]1(C)O [ERY, erythromycin]

- MIC (MSSA (ATCC 29213); [2]): > 1020 µg/mL
- MIC (MRSA (ATCC 33593); [3]): > 1020 µg/mL
SMILES: Oc1cc(O)c2c(c1)O[C@H](c1ccc(O)c(O)c1)[C@H](O)C2 [Epicatechin, epicatechin]

- MIC (MSSA (ATCC 29213); [2]): > 1020 µg/mL
- MIC (MRSA (ATCC 33593); [3]): > 1020 µg/mL
SMILES: O=c1c(O)c(-c2ccc(O)cc2O)oc2cc(O)cc(O)c12 [Morin, morin]

Continued, compound first:

SMILES: O=C(O)/C=C/c1ccc(O)c(O)c1 [Caffeic acid, caffeic acid]
- MIC (MSSA (ATCC 29213); [2]): > 1020 µg/mL
- MIC (MRSA (ATCC 33593); [3]): > 1020 µg/mL

SMILES: Oc1cc(O)c2c(c1)OC(c1ccc(O)c(O)c1)C(O)C2 (stereo not drawn) [Catechin(+), catechin]
- MIC (MSSA (ATCC 29213)): >1024 µg/mL
- MIC (MRSA (ATCC 33593); MRSA, antioxidant alone): >1024 µg/mL

SMILES: O=c1cc(-c2ccccc2)oc2cc(O)cc(O)c12 [Chrysin, chrysin]
- MIC (MSSA (ATCC 29213); [2]): > 1020 µg/mL
- MIC (MRSA (ATCC 33593); [3]): > 1020 µg/mL

SMILES: O=C(O[C@@H]1Cc2c(O)cc(O)cc2O[C@@H]1c1cc(O)c(O)c(O)c1)c1cc(O)c(O)c(O)c1 [Epigallocatechin gallate, epigallocatechin gallate]
- growth of MRSA with bacitracin plus antioxidant [1]: significantly inhibited the growth of MRSA
- optical density of MRSA after 18 h culture: inhibition of growth in combination with bacitracin [1]: significantly inhibited MRSA
- fold decrease of bacitracin MBC by antioxidant (MSSA (ATCC 29213); antioxidant 0.5 μg/ml, compared to bacitracin alone): 16 fold
- MIC (MSSA (ATCC 29213)): 128 µg/mL and 64 µg/mL
- fold decrease of bacitracin MBC by antioxidant (MRSA (ATCC 33593); MRSA, antioxidant 0.5 μg/ml, compared to bacitracin alone): > 32 fold
- MIC (MRSA (ATCC 33593); MRSA, antioxidant alone): 512 µg/mL and 256 µg/mL

SMILES: O=C(O)c1cc(O)c(O)c(O)c1 [Gallic acid, gallic acid]
- MIC (MRSA 3823; MRSA): > 1020 µg/mL
- MIC (MRSA 3865; MRSA): > 1020 µg/mL
- MIC (MRSA 3876; MRSA): > 1020 µg/mL
- MIC (MRSA 3799; MRSA): > 1020 µg/mL
- MIC (MRSA 3095; MRSA): > 1020 µg/mL
- MIC (MRSA 3795; MRSA): > 1020 µg/mL
- MIC (MRSA 3903; MRSA): > 1020 µg/mL
- MIC (MRSA 3A585; MRSA): > 1020 µg/mL
- MIC (MSSA (ATCC 29213); [2]): > 1020 µg/mL
- MIC (MRSA (ATCC 33593); Staphylococcus aureus): > 1020 µg/mL
- MBC (MRSA USA300 (BAA-1680)): 256 µg/mL
- MIC (MRSA USA300 (BAA-1680)): 128 µg/mL

SMILES: COc1ccc([C@@H]2CC(=O)c3c(O)cc(O[C@@H]4O[C@H](CO[C@@H]5O[C@@H](C)[C@H](O)[C@@H](O)[C@H]5O)[C@@H](O)[C@H](O)[C@H]4O)cc3O2)cc1O [Hesperedin, hesperidin]
- MIC (MSSA (ATCC 29213)): >1024 µg/mL
- MIC (MRSA (ATCC 33593); MRSA, antioxidant alone): >1024 µg/mL

— patent US10420815B2, “Combinational therapy for synergistic inhibition of gram-positive and gram-negative bacteria” (priority 2015, dated 2019)
